# Source: ChEMBL document CHEMBL1201862, “PubChem BioAssay data set” (2004)
# The source made the active and inactive calls.
# Legend:
# [1] = Luminescence Cell-Based Dose Confirmation HTS to Identify Inhibitors of Polyadenylation.; format: functional
# [2] = target: T1, Neuropeptide Y receptor type 1 (Homo sapiens, UniProt P25929); format: functional;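 note: HEK293 cells with a CNG channel challenged with NPY then isoproterenol; potency as antagonist that reverses NPY suppression of cAMP signal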
# T1 sequence (P25929 whole entry): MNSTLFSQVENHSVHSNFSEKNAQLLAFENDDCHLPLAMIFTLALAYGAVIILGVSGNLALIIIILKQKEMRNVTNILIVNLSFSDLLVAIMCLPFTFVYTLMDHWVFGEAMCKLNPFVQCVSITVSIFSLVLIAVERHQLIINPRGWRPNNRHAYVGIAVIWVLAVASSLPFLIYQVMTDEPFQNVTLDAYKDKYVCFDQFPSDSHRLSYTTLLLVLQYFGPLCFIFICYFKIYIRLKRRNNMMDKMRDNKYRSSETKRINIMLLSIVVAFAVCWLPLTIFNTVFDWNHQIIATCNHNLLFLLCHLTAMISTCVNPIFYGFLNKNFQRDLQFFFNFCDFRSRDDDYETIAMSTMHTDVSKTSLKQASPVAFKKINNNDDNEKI
# [3] = target: Ras and Rab interactor 1/Tyrosine-protein kinase ABL1 (Homo sapiens, UniProt P00519+Q13671); format: functional;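 note: biochemical TR-FRET dose-response test measuring inhibition of binding between Rin1 and Abl proteins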
# Chain of Ras and Rab interactor 1/Tyrosine-protein kinase ABL1 (P00519 whole entry): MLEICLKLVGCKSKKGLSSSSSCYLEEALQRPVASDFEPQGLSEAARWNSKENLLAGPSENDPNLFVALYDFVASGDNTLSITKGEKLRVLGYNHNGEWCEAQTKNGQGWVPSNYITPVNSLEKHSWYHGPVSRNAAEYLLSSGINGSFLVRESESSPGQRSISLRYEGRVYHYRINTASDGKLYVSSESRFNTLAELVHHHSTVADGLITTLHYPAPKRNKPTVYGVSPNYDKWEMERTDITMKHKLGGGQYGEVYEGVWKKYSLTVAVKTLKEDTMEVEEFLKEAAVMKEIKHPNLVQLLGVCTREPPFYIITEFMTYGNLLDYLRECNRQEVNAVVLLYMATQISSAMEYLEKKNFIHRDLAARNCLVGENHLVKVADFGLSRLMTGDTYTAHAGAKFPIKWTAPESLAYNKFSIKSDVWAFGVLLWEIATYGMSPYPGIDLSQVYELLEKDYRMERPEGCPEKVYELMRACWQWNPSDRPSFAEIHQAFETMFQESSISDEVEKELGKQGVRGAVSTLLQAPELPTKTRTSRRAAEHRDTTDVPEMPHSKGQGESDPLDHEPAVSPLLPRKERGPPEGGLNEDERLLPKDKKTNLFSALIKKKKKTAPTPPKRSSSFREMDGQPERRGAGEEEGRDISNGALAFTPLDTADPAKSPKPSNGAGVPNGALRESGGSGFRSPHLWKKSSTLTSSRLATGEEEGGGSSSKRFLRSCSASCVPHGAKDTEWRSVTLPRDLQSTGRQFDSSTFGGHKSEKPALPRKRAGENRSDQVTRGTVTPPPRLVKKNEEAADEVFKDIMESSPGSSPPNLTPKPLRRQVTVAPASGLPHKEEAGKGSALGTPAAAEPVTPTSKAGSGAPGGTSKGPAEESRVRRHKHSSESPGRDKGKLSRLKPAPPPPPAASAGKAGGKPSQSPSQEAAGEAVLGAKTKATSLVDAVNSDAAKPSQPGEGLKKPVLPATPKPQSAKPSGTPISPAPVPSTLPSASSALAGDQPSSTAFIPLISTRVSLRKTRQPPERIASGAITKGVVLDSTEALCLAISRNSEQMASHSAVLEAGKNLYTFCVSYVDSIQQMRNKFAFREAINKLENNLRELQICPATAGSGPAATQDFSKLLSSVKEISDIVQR
# Chain of Ras and Rab interactor 1/Tyrosine-protein kinase ABL1 (Q13671 whole entry): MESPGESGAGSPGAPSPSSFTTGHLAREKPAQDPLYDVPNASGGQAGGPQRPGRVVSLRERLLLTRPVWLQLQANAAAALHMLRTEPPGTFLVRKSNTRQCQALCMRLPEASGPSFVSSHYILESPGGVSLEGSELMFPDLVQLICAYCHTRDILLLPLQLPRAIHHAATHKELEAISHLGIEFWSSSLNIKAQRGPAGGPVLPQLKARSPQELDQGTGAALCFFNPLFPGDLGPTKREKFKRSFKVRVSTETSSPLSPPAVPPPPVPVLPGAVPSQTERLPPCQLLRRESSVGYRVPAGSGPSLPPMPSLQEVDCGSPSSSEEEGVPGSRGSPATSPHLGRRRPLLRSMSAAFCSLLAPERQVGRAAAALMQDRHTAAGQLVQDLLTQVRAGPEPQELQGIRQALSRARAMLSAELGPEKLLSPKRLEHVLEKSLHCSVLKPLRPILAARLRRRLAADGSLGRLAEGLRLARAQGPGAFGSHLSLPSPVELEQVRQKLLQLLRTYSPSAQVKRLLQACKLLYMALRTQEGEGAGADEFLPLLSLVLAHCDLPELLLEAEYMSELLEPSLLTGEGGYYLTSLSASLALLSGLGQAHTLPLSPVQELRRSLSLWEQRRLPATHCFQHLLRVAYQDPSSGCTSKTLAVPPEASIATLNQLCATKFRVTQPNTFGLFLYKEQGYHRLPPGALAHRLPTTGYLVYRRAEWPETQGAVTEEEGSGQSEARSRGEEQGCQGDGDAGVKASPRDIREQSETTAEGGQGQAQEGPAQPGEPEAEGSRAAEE
# [4] = target: T2, Neuropeptide Y receptor type 2 (Homo sapiens, UniProt P49146); format: functional, cell-based;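 note: HEK293 cells expressing the receptor and a CNG channel; stimulus was NPY near EC95 followed by isoproterenol to raise cAMP; antagonist potency measured as restoring cAMP signal that NPY suppresses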
# T2 sequence (P49146 whole entry): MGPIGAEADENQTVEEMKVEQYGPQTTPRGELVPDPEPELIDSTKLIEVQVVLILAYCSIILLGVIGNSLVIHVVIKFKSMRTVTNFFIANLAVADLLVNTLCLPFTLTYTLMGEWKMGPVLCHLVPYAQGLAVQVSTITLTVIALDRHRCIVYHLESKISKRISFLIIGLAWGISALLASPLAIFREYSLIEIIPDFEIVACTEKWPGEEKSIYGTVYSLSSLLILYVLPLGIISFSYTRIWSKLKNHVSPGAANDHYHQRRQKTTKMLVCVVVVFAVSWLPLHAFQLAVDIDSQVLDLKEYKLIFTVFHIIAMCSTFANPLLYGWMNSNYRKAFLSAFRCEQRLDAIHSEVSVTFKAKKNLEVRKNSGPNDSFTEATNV
# [5] = target: T3, Leucine aminopeptidase (Plasmodium falciparum 3D7, UniProt Q8IL11); test: P. falciparum M17LAP inhibitors, primary screen, biochemical, fluorogenic H-Leu-NHMec substrate, 1536-well (AID 1619); format: functional
# T3 sequence (Q8IL11 whole entry): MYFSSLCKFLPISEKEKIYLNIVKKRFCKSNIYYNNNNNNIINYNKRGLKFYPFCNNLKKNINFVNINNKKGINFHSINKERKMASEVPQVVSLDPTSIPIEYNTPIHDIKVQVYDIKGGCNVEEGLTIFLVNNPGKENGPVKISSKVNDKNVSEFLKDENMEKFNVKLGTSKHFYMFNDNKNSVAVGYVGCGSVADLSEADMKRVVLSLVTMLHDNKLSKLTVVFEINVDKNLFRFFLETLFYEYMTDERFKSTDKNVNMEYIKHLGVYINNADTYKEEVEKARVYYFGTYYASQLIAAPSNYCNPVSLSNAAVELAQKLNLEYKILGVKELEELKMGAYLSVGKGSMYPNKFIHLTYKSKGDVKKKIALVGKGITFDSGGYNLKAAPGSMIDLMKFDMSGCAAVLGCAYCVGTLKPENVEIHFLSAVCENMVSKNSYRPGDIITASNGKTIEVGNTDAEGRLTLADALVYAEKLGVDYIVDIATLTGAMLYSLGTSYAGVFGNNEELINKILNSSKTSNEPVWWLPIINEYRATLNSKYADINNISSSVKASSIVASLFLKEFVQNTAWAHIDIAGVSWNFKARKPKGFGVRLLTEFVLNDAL
# [6] = target: Procathepsin L (Homo sapiens, UniProt P07711); test: CTSL1 protease inhibition – biochemical, QFRET, 1536-well, counter-screen for M1/M17 aminopeptidase inhibitor project, dose response (AID 2214)
# Chain of Procathepsin L (P07711 whole entry): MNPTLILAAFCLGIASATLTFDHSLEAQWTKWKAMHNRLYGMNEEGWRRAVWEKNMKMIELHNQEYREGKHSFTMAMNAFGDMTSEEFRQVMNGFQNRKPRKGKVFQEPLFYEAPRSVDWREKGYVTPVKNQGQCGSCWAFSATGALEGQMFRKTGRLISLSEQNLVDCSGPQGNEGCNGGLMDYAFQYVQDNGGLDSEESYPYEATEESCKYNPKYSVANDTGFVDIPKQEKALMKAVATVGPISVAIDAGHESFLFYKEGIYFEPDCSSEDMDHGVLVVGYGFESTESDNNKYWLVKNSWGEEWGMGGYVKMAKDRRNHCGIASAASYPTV
# [7] = target: Aspartyl aminopeptidase (Plasmodium falciparum 3D7, UniProt Q8I2J3); test: Counterscreen for inhibitors of M1 and M17 aminopeptidases: QFRET-based biochemical high throughput dose response assay for inhibitors of the Plasmodium falciparum M18 Aspartyl Aminopeptidase (PFM18AAP). [Related PubChem assays: 1619 (Screening assay (M17LAP inhibitors).), 1445 (Screening assay (M1AAP inhibitors).)]
# Chain of Aspartyl aminopeptidase (Q8I2J3 whole entry): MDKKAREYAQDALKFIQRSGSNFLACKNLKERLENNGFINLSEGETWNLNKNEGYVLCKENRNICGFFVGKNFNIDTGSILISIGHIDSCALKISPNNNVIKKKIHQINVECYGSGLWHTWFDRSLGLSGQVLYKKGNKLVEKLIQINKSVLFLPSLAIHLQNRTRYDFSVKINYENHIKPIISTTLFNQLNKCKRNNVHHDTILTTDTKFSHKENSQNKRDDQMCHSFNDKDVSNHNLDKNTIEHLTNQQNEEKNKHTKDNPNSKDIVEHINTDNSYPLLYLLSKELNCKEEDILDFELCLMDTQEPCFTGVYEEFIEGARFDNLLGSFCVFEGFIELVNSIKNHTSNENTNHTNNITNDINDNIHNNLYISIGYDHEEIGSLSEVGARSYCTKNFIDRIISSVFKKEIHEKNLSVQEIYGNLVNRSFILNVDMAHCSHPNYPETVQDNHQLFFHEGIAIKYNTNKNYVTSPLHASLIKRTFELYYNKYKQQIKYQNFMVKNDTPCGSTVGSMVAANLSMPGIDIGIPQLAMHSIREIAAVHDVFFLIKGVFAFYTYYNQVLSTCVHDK
# [8] = target: T4, Replicative DNA helicase DnaB (Mycobacterium tuberculosis, UniProt P9WMR3); test: DnaB intein splicing inhibitors, dose response, biochemical, cell-free fluorescence (AID 449749); format: functional
# T4 sequence (P9WMR3 whole entry): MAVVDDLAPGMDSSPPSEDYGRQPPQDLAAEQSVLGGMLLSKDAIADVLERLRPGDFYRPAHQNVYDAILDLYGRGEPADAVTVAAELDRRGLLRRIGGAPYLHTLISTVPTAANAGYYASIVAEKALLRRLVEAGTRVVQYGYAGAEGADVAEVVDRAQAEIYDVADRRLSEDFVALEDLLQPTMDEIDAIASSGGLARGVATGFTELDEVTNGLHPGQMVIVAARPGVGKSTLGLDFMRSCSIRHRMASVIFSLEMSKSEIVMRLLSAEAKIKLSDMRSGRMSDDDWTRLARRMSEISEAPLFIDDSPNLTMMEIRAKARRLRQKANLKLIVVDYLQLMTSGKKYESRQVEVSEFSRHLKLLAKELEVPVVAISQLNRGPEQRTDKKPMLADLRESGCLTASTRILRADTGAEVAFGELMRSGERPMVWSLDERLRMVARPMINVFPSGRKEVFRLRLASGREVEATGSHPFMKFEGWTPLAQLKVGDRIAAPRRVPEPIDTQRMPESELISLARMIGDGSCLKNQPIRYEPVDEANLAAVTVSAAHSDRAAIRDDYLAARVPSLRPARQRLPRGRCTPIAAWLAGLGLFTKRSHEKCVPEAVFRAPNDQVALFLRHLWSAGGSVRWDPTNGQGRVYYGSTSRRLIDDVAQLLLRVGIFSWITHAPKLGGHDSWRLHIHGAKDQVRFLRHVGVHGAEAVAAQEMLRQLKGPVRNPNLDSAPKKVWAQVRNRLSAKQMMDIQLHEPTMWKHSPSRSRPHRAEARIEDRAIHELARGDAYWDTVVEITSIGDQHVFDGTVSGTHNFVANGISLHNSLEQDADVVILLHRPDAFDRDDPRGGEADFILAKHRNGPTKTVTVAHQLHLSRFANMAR
# [9] = target: T5, Protein RecA (Mycobacterium tuberculosis, UniProt P9WHJ3); test: Fluorescence Cell-Free Homogeneous Dose Retest to Identify Inhibitors of RecA-Intein Splicing Activity. [Related pubchem assays (depositor defined):AID2097, AID2223, AID489010, AID492950]; format: functional
# T5 sequence (P9WHJ3 whole entry): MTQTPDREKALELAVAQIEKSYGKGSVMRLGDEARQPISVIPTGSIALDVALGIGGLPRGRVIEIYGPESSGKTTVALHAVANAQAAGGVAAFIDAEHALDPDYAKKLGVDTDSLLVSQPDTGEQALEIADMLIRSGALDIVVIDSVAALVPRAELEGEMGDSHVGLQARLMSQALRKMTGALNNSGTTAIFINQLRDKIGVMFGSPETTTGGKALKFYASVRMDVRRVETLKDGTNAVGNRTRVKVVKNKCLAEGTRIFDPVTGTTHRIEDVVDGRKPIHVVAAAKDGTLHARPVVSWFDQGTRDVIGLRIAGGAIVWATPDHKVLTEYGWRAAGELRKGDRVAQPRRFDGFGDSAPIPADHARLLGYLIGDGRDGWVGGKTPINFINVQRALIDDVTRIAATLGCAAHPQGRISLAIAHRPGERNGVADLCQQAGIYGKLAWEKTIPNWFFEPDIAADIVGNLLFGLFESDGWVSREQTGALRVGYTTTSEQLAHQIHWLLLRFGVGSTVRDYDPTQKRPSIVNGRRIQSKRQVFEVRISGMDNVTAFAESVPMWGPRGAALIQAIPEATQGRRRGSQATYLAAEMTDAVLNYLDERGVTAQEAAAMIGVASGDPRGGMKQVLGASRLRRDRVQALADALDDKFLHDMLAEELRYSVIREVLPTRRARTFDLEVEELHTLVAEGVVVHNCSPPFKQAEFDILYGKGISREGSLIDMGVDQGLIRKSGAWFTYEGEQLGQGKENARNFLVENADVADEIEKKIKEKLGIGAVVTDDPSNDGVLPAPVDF
# [10] = M. tuberculosis growth inhibition, HTS (AID 449762); format: functional
# [11] = target: T6, Probable nicotinate-nucleotide adenylyltransferase (Staphylococcus aureus (strain N315), UniProt P65502); format: functional, Staphylococcus aureus subsp. aureus N315;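 for IC50 Mean: confirmatory dose-response retesting of NadD inhibitor hits first found in an ultra-high-throughput screen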
# T6 sequence (P65502 whole entry): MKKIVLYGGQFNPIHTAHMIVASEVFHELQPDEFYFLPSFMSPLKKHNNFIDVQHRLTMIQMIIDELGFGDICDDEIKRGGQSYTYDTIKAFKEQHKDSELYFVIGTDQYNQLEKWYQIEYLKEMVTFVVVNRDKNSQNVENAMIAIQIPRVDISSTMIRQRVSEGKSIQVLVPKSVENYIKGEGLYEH
# [12] = target: T6, Probable nicotinate-nucleotide adenylyltransferase; format: functional, Staphylococcus aureus subsp. aureus N315; conditions: read-out: IC50_Mean
# [13] = A High Throughput Confirmatory Assay used to Identify Novel Compounds that Inhibit Mycobacterium Tuberculosis in the absence of Glycerol.; format: functional
# [14] = target: T7, Estrogen receptor (Homo sapiens, UniProt P03372); test: blockers of SRC-3 recruitment to ERα – biochemical, ELISA, streptavidin-HRP readout, orthogonal assay, confirmation (AID 1079)
# T7 sequence (P03372 whole entry): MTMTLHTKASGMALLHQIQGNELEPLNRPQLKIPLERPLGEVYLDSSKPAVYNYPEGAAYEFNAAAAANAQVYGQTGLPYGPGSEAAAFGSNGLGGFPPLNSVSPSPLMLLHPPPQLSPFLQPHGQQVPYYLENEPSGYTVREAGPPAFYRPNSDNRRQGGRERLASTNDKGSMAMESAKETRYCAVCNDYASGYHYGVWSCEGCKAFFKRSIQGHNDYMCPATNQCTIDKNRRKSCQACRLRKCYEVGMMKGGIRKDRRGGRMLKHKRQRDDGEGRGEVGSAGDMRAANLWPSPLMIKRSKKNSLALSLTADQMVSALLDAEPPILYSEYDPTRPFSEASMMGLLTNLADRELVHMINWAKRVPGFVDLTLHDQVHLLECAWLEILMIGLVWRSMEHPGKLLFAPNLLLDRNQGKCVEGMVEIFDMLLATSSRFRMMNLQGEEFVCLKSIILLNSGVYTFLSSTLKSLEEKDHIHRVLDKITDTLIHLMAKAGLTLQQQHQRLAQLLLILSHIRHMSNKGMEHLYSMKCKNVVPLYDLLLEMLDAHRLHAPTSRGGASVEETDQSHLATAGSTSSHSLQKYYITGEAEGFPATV
# [15] = cells; format: functional
# [16] = M. tuberculosis H37Rv growth inhibitors, H37Rv strain (AID 1626); format: functional
# [17] = tested on: Streptococcus; test: GAS UMAA2166 growth inhibition – luminescence, BacTiterGlo, counter-screen for streptokinase expression inhibitor project, dose response (AID 1915); format: functional, organism-based;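 note: potency for reduction of bacterial viability or growth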
# [18] = reduction of Shn3 3'UTR-driven luciferase in osteoblasts – cell-based, Clone20 osteoblasts, firefly luciferase, cherry-picked, dose response (AID 624132); format: functional;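 note: firefly luciferase luminescence from reporter carrying the Shn3 3'UTR in osteoblasts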
# [19] = HPDE-C7 pancreatic duct cell viability loss – fluorescence, HTS (AID 430); format: functional, cell-based; conditions: Homo sapiens
# [20] = viability loss of HPDE-C7K cells – cell-based, fluorescence, HTS, primary screen (AID 431); format: functional; conditions: Homo sapiens
# [21] = tested on: Streptococcus sp. 'group A'; test: Streptococcus pyogenes SK(-)GAS viability under kanamycin – luminescence, BacTiterGlo, confirmation, counter-screen for streptokinase expression inhibitor project, dose response (AID 1900); format: functional, organism-based
# [22] = target: Sphingosine 1-phosphate receptor 2 (Homo sapiens, UniProt O95136); test: Dose Response Cell Based Assay for Antagonists of the S1P2 Receptor. [Related pubchem assays: 856, 736 ]; format: functional
# Chain of Sphingosine 1-phosphate receptor 2 (O95136 whole entry): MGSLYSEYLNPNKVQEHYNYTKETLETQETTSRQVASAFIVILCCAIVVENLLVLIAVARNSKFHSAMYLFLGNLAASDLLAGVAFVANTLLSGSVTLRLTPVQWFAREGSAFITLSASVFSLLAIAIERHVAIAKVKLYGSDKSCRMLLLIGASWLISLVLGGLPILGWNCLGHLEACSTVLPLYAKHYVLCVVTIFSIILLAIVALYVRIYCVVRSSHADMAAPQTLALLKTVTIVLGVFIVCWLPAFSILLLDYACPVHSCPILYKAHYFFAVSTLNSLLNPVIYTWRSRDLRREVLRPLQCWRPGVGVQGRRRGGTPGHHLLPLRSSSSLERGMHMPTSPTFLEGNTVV
# [23] = tested on: INS1; test: INS-1E survival protection against cytokine death – cell-based, luminescence, retest, dose response (AID 449756); format: functional; conditions: Rattus norvegicus;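 note: cell death triggered by IL-1 beta plus TNF-alpha plus IFN-gamma mixture; protective hits raise ATP signal compared with cytokine alone wells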
# [24] = IC50 of Artemis nuclease activity blockers – biochemical, fluorescence intensity, dose response (AID 720701); format: functional;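 note: Artemis endonuclease enzyme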
# [25] = non-specific 3'UTR reporter inhibition in Clone20-Shn3RL – cell-based, Renilla luciferase, cherry-picked, counter-screen for Shn3 inhibitor project, dose response (AID 624133); format: functional
# [26] = target: Protein-tyrosine kinase 2-beta (Homo sapiens, UniProt Q14289);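 note: potency of inhibitors of PYK2 kinase phosphorylation of poly-GT substrate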
# Chain of Protein-tyrosine kinase 2-beta (Q14289 whole entry): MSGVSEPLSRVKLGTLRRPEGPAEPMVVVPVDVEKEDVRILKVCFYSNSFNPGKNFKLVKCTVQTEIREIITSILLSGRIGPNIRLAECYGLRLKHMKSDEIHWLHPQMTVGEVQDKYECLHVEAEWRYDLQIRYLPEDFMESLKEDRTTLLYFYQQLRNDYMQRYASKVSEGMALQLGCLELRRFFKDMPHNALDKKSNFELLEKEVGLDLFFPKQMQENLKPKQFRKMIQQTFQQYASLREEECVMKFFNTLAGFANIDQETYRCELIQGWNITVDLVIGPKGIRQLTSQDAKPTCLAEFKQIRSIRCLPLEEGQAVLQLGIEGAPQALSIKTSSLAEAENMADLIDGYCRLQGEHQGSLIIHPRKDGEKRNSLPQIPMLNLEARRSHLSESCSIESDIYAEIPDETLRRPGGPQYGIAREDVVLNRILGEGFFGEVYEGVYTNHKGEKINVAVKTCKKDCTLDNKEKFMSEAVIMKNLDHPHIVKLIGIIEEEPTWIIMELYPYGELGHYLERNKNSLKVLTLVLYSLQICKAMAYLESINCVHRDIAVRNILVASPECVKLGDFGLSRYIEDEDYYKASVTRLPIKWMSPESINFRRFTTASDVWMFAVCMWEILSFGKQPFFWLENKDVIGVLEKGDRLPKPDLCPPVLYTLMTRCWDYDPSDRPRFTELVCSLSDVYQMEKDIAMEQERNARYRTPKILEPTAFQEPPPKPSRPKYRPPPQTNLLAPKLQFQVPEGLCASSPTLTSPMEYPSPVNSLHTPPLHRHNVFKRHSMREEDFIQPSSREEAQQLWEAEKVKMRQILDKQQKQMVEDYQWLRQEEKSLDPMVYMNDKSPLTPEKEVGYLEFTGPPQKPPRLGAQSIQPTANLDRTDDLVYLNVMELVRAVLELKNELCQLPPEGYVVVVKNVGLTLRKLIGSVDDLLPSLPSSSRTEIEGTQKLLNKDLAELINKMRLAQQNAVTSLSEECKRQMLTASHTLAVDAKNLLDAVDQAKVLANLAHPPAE
structure (smiles),measurement,setting,value
CCCOP(=O)(c1ccc(N(C)C)cc1)C(Nc1ccccc1)c1ccc(C)cc1 (stereo unspecified),EC50,[1],> 120 µM (not active)
CCOC(=O)CCCCC(=O)c1[nH]c(O)nc1CSc1nnc2c3ccccc3n(C(C)C)c2n1,IC50,[2],7.63 µM (active)
same,IC50,[3],3.46 µM (active)
same,IC50,[4],2.95 µM (active)
Cc1ccc(-c2cc(O)[nH]n2)c(C)c1,IC50,[5],< 1 µM (active)
same,IC50,[6],> 59.6 µM (not active)
same,IC50,[7],> 73.5 µM (not active)
same,AC50,[8],2.53 µM (active)
same,EC50,[9],0.502 µM (active)
CC(=O)c1cccc(NC(=O)C2C3C=CC(C3=C(c3ccccc3)c3ccccc3)C2C(=O)O)c1 (stereo unspecified),IC50,[10],> 100 µM (active)
same,IC50,[11],8.12 µM (active)
same,IC50,[12],44.5 µM (active)
same,IC50,[13],> 50 µM (active)
O=C(CCCCCn1c(=S)[nH]c2ccccc2c1=O)N1CCN(c2cccc([N+](=O)[O-])c2)CC1,IC50,[14],0.84 µM (not active)
N=C1/C(=C/c2ccc(OC(=O)c3ccco3)cc2)C(=O)N=C2SC=CN12,IC50,[15],10.9 µM (active)
same,IC50,[16],> 100 µM (active)
CCn1c(=O)c(C(=O)Nc2nc3ccccc3[nH]2)c(O)c2ccccc21,EC50,[17],2.99 µM (active)
same,AC50,[18],6.01 µM (active)
same,EC50,[19],4.14 µM (active)
same,EC50,[20],5.58 µM (active)
same,EC50,[21],0.992 µM (active)
same,IC50,[22],> 50 µM (not active)
same,AC50,[23],3.83 µM (active)
same,IC50,[24],3.81 µM (active)
same,AC50,[25],4.17 µM (active)
same,IC50,[26],> 69.5 µM (not active)
